Test results taken from patent US9637453B2, “3-spirocyclic-6-hydroxamic acid tetralins as HDAC inhibitors” (Forma Therapeutics, Inc., priority 2015, dated 2017).

Columns and labels:
[1] = target: T1, Full length human recombinant HDAC6 (Homo sapiens, UniProt Q9UBN7); assay: In vitro histone deacetylase assay, enzymatic HDAC6 (electrophoretic mobility shift assay); assay type: biochemical; conditions: 1 nM HDAC6; 2 μM peptide substrate FAM-RHKK(Ac)—NH2; 25° C.; 12 concentrations; read-out: HDAC6 Activity Range (IC50)
T1 construct: Full length human recombinant HDAC6 and HDAC11 proteins were expressed in baculoviral system
T1 sequence (Q9UBN7 1-1215): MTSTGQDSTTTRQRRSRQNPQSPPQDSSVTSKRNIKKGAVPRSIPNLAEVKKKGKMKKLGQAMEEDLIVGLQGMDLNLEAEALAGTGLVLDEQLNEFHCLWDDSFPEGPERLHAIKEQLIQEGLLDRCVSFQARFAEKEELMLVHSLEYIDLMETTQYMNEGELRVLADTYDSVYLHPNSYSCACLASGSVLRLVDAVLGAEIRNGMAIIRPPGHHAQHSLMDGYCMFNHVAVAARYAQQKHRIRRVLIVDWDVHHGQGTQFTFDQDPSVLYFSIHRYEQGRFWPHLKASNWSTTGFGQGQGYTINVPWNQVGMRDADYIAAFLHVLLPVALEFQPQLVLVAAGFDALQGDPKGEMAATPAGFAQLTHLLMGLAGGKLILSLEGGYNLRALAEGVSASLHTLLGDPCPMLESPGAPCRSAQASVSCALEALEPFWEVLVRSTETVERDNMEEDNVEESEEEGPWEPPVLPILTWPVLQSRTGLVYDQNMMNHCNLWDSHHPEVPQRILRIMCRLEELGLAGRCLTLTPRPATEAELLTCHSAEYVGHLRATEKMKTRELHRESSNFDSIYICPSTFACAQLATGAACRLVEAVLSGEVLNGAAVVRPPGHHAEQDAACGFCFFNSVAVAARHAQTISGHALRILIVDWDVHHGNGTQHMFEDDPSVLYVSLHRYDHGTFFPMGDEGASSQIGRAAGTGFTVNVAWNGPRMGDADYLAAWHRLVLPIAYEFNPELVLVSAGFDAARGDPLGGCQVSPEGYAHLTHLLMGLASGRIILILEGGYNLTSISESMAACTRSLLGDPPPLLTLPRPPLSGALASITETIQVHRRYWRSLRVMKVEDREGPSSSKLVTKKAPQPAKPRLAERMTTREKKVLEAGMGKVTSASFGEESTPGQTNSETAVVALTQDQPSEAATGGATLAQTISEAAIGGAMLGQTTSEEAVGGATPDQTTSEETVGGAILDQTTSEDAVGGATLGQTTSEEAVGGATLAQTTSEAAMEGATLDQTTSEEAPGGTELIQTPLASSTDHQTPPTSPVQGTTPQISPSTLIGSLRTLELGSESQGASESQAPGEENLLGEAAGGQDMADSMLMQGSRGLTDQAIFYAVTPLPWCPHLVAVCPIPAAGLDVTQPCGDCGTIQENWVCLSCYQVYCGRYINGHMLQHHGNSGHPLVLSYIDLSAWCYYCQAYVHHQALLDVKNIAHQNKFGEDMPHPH
In short: (§1)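 Baculovirus-expressed full-length enzymes (HDAC6 1 nM, FAM-RHKK(Ac)-NH2; HDAC11 10 nM, FAM-RHKK(tri-fluor-Ac)-NH2), 2 μM substrate, HEPES pH 7.5, 25°C, 12-point 3× dilutions. Product/substrate separated by microfluidic mobility shift after SDS quench; IC50 from 4-parameter fit, reported as +/++/+++ bins.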

[2] = target: T2, Full length human recombinant HDAC11 (Homo sapiens, UniProt Q96DB2); assay: In vitro histone deacetylase assay, enzymatic HDAC11 (electrophoretic mobility shift assay); assay type: biochemical; conditions: 10 nM HDAC11; 2 μM peptide substrate FAM-RHKK(tri-fluor-Ac)—NH2; 25° C.; 12 concentrations; read-out: HDAC11 Activity Range (IC50)
T2 construct: Full length human recombinant HDAC6 and HDAC11 proteins were expressed in baculoviral system
T2 sequence (Q96DB2 1-347): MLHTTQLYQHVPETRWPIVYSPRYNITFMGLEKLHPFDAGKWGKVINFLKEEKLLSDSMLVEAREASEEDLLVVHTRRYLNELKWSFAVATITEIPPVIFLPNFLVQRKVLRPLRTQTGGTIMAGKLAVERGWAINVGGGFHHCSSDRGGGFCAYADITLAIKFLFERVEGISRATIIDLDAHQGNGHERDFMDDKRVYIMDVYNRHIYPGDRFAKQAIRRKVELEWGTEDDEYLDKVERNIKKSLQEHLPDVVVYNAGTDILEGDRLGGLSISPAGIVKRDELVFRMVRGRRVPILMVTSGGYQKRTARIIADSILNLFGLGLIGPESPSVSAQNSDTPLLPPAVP
In short: as §1

| IC50 [1] | IC50 [2] | SMILES |
| --- | --- | --- |
| ≤ 100 nM | > 500 nM | O=C(NO)c1ccc2c(c1)C[C@@]1(CC2)CCN(Cc2ccccc2OC(F)F)C1=O [Compound I-78, (S)-1′-(2-(difluoromethoxy)benzyl)-N-hydroxy-2′-oxo-3,4-dihydro-1H-spiro[naphthalene-2,3′-pyrrolidine]-7-carboxamide] |
| ≤ 100 nM | > 500 nM | CCCN1CC[C@]2(CCc3ccc(C(=O)NO)cc3C2)C1=O [Compound I-79, (R)—N-hydroxy-2′-oxo-1′-propyl-3,4-dihydro-1H-spiro[naphthalene-2,3′-pyrrolidine]-7-carboxamide] |
| ≤ 100 nM | > 500 nM | O=C(NO)c1ccc2c(c1)C[C@]1(CC2)CCN(CCCO)C1=O [Compound I-80, (R)—N-hydroxy-1′-(3-hydroxypropyl)-2′-oxo-3,4-dihydro-1H-spiro[naphthalene-2,3′-pyrrolidine]-7-carboxamide] |
| ≤ 100 nM | > 500 nM | O=C(NO)c1ccc2c(c1)C[C@]1(CC2)CCN(CC2CCC2)C1=O [Compound I-81, (R)-1′-(cyclobutylmethyl)-N-hydroxy-2′-oxo-3,4-dihydro-1H-spiro[naphthalene-2,3′-pyrrolidine]-7-carboxamide] |
| ≤ 100 nM | 100 to 500 nM | CC(C)CCN1CC[C@]2(CCc3ccc(C(=O)NO)cc3C2)C1=O [Compound I-82, (R)—N-hydroxy-1′-isopentyl-2′-oxo-3,4-dihydro-1H-spiro[naphthalene-2,3′-pyrrolidine]-7-carboxamide] |
| ≤ 100 nM | > 500 nM | CC#CCN1CC[C@]2(CCc3ccc(C(=O)NO)cc3C2)C1=O [Compound I-83, (R)-1′-(but-2-yn-1-yl)-N-hydroxy-2′-oxo-3,4-dihydro-1H-spiro[naphthalene-2,3′-pyrrolidine]-7-carboxamide] |
| ≤ 100 nM | > 500 nM | COCCN1CC[C@]2(CCc3ccc(C(=O)NO)cc3C2)C1=O [Compound I-84, (R)—N-hydroxy-1′-(2-methoxyethyl)-2′-oxo-3,4-dihydro-1H-spiro[naphthalene-2,3′-pyrrolidine]-7-carboxamide] |
| ≤ 100 nM | > 500 nM | O=C(NO)c1ccc2c(c1)C[C@]1(CC2)CCN(CC2CCOCC2)C1=O [Compound I-85, (R)—N-hydroxy-2′-oxo-1′-((tetrahydro-2H-pyran-4-yl)methyl)-3,4-dihydro-1H-spiro[naphthalene-2,3′-pyrrolidine]-7-carboxamide] |
| ≤ 100 nM | ≤ 100 nM | O=C(NO)c1ccc2c(c1)C[C@]1(CC2)CCN(C/C=C/c2ccccc2)C1=O [Compound I-86, (R)-1′-cinnamyl-N-hydroxy-2′-oxo-3,4-dihydro-H-spiro[naphthalene-2,3′-pyrrolidine]-7-carboxamide] |
| ≤ 100 nM | ≤ 100 nM | Cc1ccccc1CN1CC[C@]2(CCc3ccc(C(=O)NO)cc3C2)C1=O [Compound I-87, (R)—N-hydroxy-1′-(2-methylbenzyl)-2′-oxo-3,4-dihydro-1H-spiro[naphthalene-2,3′-pyrrolidine]-7-carboxamide] |
| ≤ 100 nM | ≤ 100 nM | O=C(NO)c1ccc2c(c1)C[C@]1(CC2)CCN(Cc2ccccc2C(F)(F)F)C1=O [Compound I-88, (R)—N-hydroxy-2′-oxo-1′-(2-(trifluoromethyl)benzyl)-3,4-dihydro-1H-spiro[naphthalene-2,3′-pyrrolidine]-7-carboxamide] |
| ≤ 100 nM | ≤ 100 nM | O=C(NO)c1ccc2c(c1)C[C@]1(CC2)CCN(Cc2ccccc2Cl)C1=O [Compound I-89, (R)-1′-(2-chlorobenzyl)-N-hydroxy-2′-oxo-3,4-dihydro-1H-spiro[naphthalene-2,3′-pyrrolidine]-7-carboxamide] |
| ≤ 100 nM | ≤ 100 nM | O=C(NO)c1ccc2c(c1)C[C@]1(CC2)CCN(Cc2ccccc2OC(F)(F)F)C1=O [Compound I-90, (R)—N-hydroxy-2′-oxo-1′-(2-(trifluoromethoxy)benzyl)-3,4-dihydro-1H-spiro[naphthalene-2,3′-pyrrolidine]-7-carboxamide] |
| ≤ 100 nM | ≤ 100 nM | O=C(NO)c1ccc2c(c1)C[C@]1(CC2)CCN(Cc2ccc3nonc3c2)C1=O [Compound I-91, (R)-1′-(benzo[c][1,2,5]oxadiazol-5-ylmethyl)-N-hydroxy-2′-oxo-3,4-dihydro-1H-spiro[naphthalene-2,3′-pyrrolidine]-7-carboxamide] |
| ≤ 100 nM | > 500 nM | O=C(NO)c1ccc2c(c1)C[C@]1(CC2)CCN(CC(=O)N2CCOCC2)C1=O [Compound I-92, (R)—N-hydroxy-1′-(2-morpholino-2-oxoethyl)-2′-oxo-3,4-dihydro-1H-spiro[naphthalene-2,3′-pyrrolidine]-7-carboxamide] |
| ≤ 100 nM | 100 to 500 nM | COc1ccccc1CN1CC[C@]2(CCc3ccc(C(=O)NO)cc3C2)C1=O [Compound I-93, (R)—N-hydroxy-1′-(2-methoxybenzyl)-2′-oxo-3,4-dihydro-1H-spiro[naphthalene-2,3′-pyrrolidine]-7-carboxamide] |
| ≤ 100 nM | ≤ 100 nM | O=C(NO)c1ccc2c(c1)C[C@]1(CC2)CCN(Cc2cc(Cl)ccc2Cl)C1=O [Compound I-94, (R)-1′-(2,5-dichlorobenzyl)-N-hydroxy-2′-oxo-3,4-dihydro-1H-spiro[naphthalene-2,3′-pyrrolidine]-7-carboxamide] |
| ≤ 100 nM | > 500 nM | O=C(NO)c1ccc2c(c1)C[C@]1(CC2)CCN(Cc2c(Cl)cccc2Cl)C1=O [Compound I-95, (R)-1′-(2,6-dichlorobenzyl)-N-hydroxy-2′-oxo-3,4-dihydro-1H-spiro[naphthalene-2,3′-pyrrolidine]-7-carboxamide] |
| ≤ 100 nM | 100 to 500 nM | COc1cccc(CN2CC[C@]3(CCc4ccc(C(=O)NO)cc4C3)C2=O)c1 [Compound I-96, (R)—N-hydroxy-1′-(3-methoxybenzyl)-2′-oxo-3,4-dihydro-1H-spiro[naphthalene-2,3′-pyrrolidine]-7-carboxamide] |
| ≤ 100 nM | > 500 nM | O=C(NO)c1ccc2c(c1)C[C@]1(CC2)CCN(Cc2cccnc2)C1=O [Compound I-97, (R)—N-hydroxy-2′-oxo-1′-(pyridin-3-ylmethyl)-3,4-dihydro-1H-spiro[naphthalene-2,3′-pyrrolidine]-7-carboxamide] |
| ≤ 100 nM | > 500 nM | O=C(NO)c1ccc2c(c1)C[C@]1(CC2)CCN(Cc2ccccn2)C1=O [Compound I-98, (R)—N-hydroxy-2′-oxo-1′-(pyridin-2-ylmethyl)-3,4-dihydro-1H-spiro[naphthalene-2,3′-pyrrolidine]-7-carboxamide] |
| ≤ 100 nM | ≤ 100 nM | O=C(NO)c1ccc2c(c1)C[C@]1(CC2)CCN(Cc2cccc(F)c2)C1=O [Compound I-99, (R)-1′-(3-fluorobenzyl)-N-hydroxy-2′-oxo-3,4-dihydro-1H-spiro[naphthalene-2,3′-pyrrolidine]-7-carboxamide] |
| ≤ 100 nM | ≤ 100 nM | O=C(NO)c1ccc2c(c1)C[C@]1(CC2)CCN(Cc2ccc(OC(F)(F)F)cc2)C1=O [Compound I-100, (R)—N-hydroxy-2′-oxo-1′-(4-(trifluoromethoxy)benzyl)-3,4-dihydro-1H-spiro[naphthalene-2,3′-pyrrolidine]-7-carboxamide] |
